Reference: patent publication US9663478B2, “Benzotriazine oxides as drugs targeting Mycobacterium tuberculosis” (priority 2011, dated 2017)
≈ marks a conversion by molar mass, not a printed value.

Key:
in vitro = settings: African green monkey, VERO Tox (CC50)
NRP Mtb H37Rv cells = assay: Low-oxygen recovery assay (LORA) MIC; assay type: cell-based, Mycobacterium tuberculosis; settings: for LORA MIC: Tables P1, P2, non-replicating M. tuberculosis
Mtb H37Rv [1] = assay: TB MIC - SRI, resazurin-based microplate assay; assay type: cell-based, Mycobacterium tuberculosis; settings: Mycobacterium tuberculosis, H37RV, Tables P1-P3; read-out: TB MIC - SRI
Mtb H37Rv [2] = assay: TB MIC - ITR (UIC), Institute for Tuberculosis Research; assay type: cell-based, Mycobacterium tuberculosis; settings: for TB MIC - UIC: Tables P1, P2
[3] = system: Salmonella typhimurium tester strain TA100; assay: Salmonella/microsome plate incorporation assay (Ames screen), TA100; assay type: cell-based
Description: (§1) A liability in developing any bioreductively-activated antimicrobial drug is the potential for mutagenicity. Because the basis for activity of these compounds is the generation of intermediate radical species, undesirable mutagenicity poses a risk, as has been documented for many classes of bioreductive drugs, including the BTO tirapazamine (TPZ).^19,20 The most convenient methodology for assessing the potential to induce genetic damage is to use the plate incorporation method with Salmonella typhimurium strains TA98 and TA100, commonly known as the Ames assay. The Salmonella tester strains have mutations in the histidine operon, a mutation that leads to defective lipopolysaccharide (rfa), and a deletion that covers genes involved in the synthesis of biotin (bio) and in the repair of ultraviolet-induced DNA damage (uvrB).^21,22 These mutations make the strains more permeable to many molecules and increase their susceptibility to the mutagenic effects of these molecules. Given that the hypothesized mechanism of the BTO compounds is to selectively form cytotoxic radical species in bacteria over mammalian cells, a microbial mutagenicity assay is not ideal, but was used to benchmark their activities in this assay. […] Individual plate counts and their means and standard deviations, along with the condition of the background lawn, are presented in SI Table 2.
(§2) Experimental compounds were screened for microbial mutagenicity activity using the plate incorporation method with Salmonella typhimurium tester strains TA98 and TA100, in the presence and absence of an Aroclor 1254-induced rat-liver metabolic activation system containing 10% S9 (MA). The presence of the appropriate genetic characteristics was verified for the strains used in this study. Stock solutions were made by dissolving each test sample in dimethyl sulfoxide (DMSO) at 5 mg/ml. These initial stock concentrations were then serially diluted to achieve dose formulations of 100, 50, 10, 5, 1, 0.5, and 0.1 μg/plate (dosing volume 100 μl). Test plates were compared with the control plates for their revertant count and for the condition of the background bacterial lawn. A test article was considered a mutagen when the mean number of revertant colonies on the test plates exceeds the mean solvent control counts by at least a two-fold margin. Dose relatedness was also taken into account when evaluating a mutagenic response. Cytotoxicity was estimated by several parameters: a substantial decrease in the number of revertant colonies on the test plates, clearing or absence of the background bacterial lawn growth, formation of pinpoint nonrevertant colonies, or complete absence of bacterial growth.

[4] = system: Salmonella typhimurium tester strain TA98; assay: Salmonella/microsome plate incorporation assay (Ames screen), TA98; assay type: cell-based; settings: for Mean revertants per plate: Salmonella typhimurium
Description: as §1, §2

[5] = TA100, with metabolic activation (10% S9), 0.1 μg per plate
[6] = TA100, with metabolic activation (10% S9), 0.5 μg per plate
[7] = TA100, with metabolic activation (10% S9), 1 μg per plate
[8] = TA100, with metabolic activation (10% S9), 5 μg per plate
[9] = TA100, with metabolic activation (10% S9), 10 μg per plate
[10] = TA100, with metabolic activation (10% S9), 50 μg per plate
[11] = TA100, with metabolic activation (10% S9), 100 μg per plate
[12] = TA100, without metabolic activation, 0.1 μg per plate
[13] = TA100, without metabolic activation, 0.5 μg per plate
[14] = TA100, without metabolic activation, 1 μg per plate
[15] = TA100, without metabolic activation, 5 μg per plate
[16] = TA100, without metabolic activation, 10 μg per plate
[17] = TA100, without metabolic activation, 50 μg per plate
[18] = TA100, without metabolic activation, 100 μg per plate

`C[C@@H](Nc1n[n+]([O-])c2ccccc2[n+]1[O-])C1CCCCC1` (racemic) [SRI-012261] gave a CC50 at 72 h (in vitro) of 8.9 µg/mL (≈ 30.9 µM), an LORA MIC (NRP Mtb H37Rv cells) of 0.36 µg/mL and an MIC (Mtb H37Rv [1]) of 1.25 µg/mL (≈ 4.33 µM). It also gave a TB MIC - UIC (Mtb H37Rv [2]) of 0.92 µg/mL.

Compound `[O-][n+]1nc(N[C@@H]2C[C@H]3CC[C@@H]2C3)[n+]([O-])c2ccccc21` (racemic) [SRI-012264] has a CC50 at 72 h (in vitro) of 3.4 µg/mL (≈ 12.5 µM), an LORA MIC (NRP Mtb H37Rv cells) of 0.42 µg/mL and an MIC (Mtb H37Rv [1]) of 0.625 µg/mL (≈ 2.3 µM). It also gave a TB MIC - UIC (Mtb H37Rv [2]) of 0.6 µg/mL.

For `C[C@@H]1[C@H]2C[C@@H](C[C@H]1Nc1n[n+]([O-])c3ccccc3[n+]1[O-])C2(C)C` (racemic) [SRI-012273], the CC50 at 72 h (in vitro) was 4.6 µg/mL (≈ 14.6 µM), the LORA MIC (NRP Mtb H37Rv cells) was 0.48 µg/mL and the MIC (Mtb H37Rv [1]) was 1.25 µg/mL (≈ 3.98 µM). For the same compound, the TB MIC - UIC (Mtb H37Rv [2]) was 0.48 µg/mL.

In the case of `CCNc1n[n+]([O-])c2cc3c(cc2[n+]1[O-])CCC3` [Compound 15fa, 3-(ethylamino)-7,8-dihydro-6H-indeno[5,6-e][1,2,4]triazine 1,4-dioxide], the MIC (NRP Mtb H37Rv cells; Mycobacterium tuberculosis, H37RV, NRP Mtb, Tables 1-4 and text, read-out: LORA MIC - ITR) is reported as 0.83 µg/mL (≈ 3.37 µM), the MIC (Mtb H37Rv [2]; Mycobacterium tuberculosis, H37RV, Tables 1-4, read-out: TB MIC - ITR) is reported as 0.95 µg/mL (≈ 3.86 µM) and the “Mean revertants per plate” value [3, 5] is reported as 145.5. For the same compound, the Ratio treated/solvent [3, 5] was 0.9, the “Mean revertants per plate” value [3, 6] was 148.5 and the Ratio treated/solvent [3, 6] was 0.9. For the same compound, the “Mean revertants per plate” value [3, 7] was 185.0, the Ratio treated/solvent [3, 7] was 1.1 and the “Mean revertants per plate” value [3, 8] was 207.0. The Ratio treated/solvent [3, 8] was 1.2, the “Mean revertants per plate” value [3, 9] was 298.5 and the Ratio treated/solvent [3, 9] was 1.8. The “Mean revertants per plate” value [3, 10] was 854.5, the Ratio treated/solvent [3, 10] was 5.1 and the “Mean revertants per plate” value [3, 11] was 1450.0. The Ratio treated/solvent [3, 11] was 8.6, the “Mean revertants per plate” value [3, 12] was 127.0 and the Ratio treated/solvent [3, 12] was 0.8. The “Mean revertants per plate” value [3, 13] was 137.0, the Ratio treated/solvent [3, 13] was 0.8 and the “Mean revertants per plate” value [3, 14] was 150.5. The Ratio treated/solvent [3, 14] was 0.9, the “Mean revertants per plate” value [3, 15] was 259.0 and the Ratio treated/solvent [3, 15] was 1.6. The “Mean revertants per plate” value [3, 16] was 299.5, the Ratio treated/solvent [3, 16] was 1.8 and the “Mean revertants per plate” value [3, 17] was 913.5. For the same compound, the Ratio treated/solvent [3, 17] was 5.6, the “Mean revertants per plate” value [3, 18] was 1268.0 and the Ratio treated/solvent [3, 18] was 7.8. The “number of revertant colonies, TA100” value ([3]; presence and absence of metabolic activation) was “dose-related increases in the number of revertant colonies”, the “number of revertant colonies, TA98” value [4] was “dose-related increases in the number of revertant colonies” and the “Mean revertants per plate” value ([4]; 0.1 μg per plate) was 21.0. The “Mean revertants per plate” value ([4]; 0.1 μg/plate) was 35.5, the “Mean revertants per plate” value ([4]; 0.5 μg per plate) was 19.0 and the “Mean revertants per plate” value ([4]; 0.5 μg/plate) was 36.0. The “Mean revertants per plate” value ([4]; 1 μg per plate) was 26.0, the “Mean revertants per plate” value ([4]; 1 μg/plate) was 30.5 and the “Mean revertants per plate” value ([4]; 5 μg per plate) was 47.0. The “Mean revertants per plate” value ([4]; 5 μg/plate) was 37.0, the “Mean revertants per plate” value ([4]; 10 μg per plate) was 52.0 and the “Mean revertants per plate” value ([4]; 10 μg/plate) was 45.0. The “Mean revertants per plate” value ([4]; 50 μg per plate) was 142.5, the “Mean revertants per plate” value ([4]; 50 μg/plate) was 141.0 and the “Mean revertants per plate” value ([4]; 100 μg per plate) was 345.0. The “Mean revertants per plate” value ([4]; 100 μg/plate) was 215.5, the Ratio treated/solvent ([4]; TA98, with metabolic activation (10% S9), 0.1 μg per plate) was 1.0 and the Ratio treated/solvent ([4]; TA98, with metabolic activation (10% S9), 0.5 μg per plate) was 1.0. It also gave a Ratio treated/solvent ([4]; TA98, with metabolic activation (10% S9), 1 μg per plate) of 0.9, a Ratio treated/solvent ([4]; TA98, with metabolic activation (10% S9), 5 μg per plate) of 1.0 and a Ratio treated/solvent ([4]; TA98, with metabolic activation (10% S9), 10 μg per plate) of 1.5. For the same compound, the Ratio treated/solvent ([4]; TA98, with metabolic activation (10% S9), 50 μg per plate) was 4.0, the Ratio treated/solvent ([4]; TA98, with metabolic activation (10% S9), 100 μg per plate) was 9.7 and the Ratio treated/solvent ([4]; TA98, without metabolic activation, 0.1 μg per plate) was 0.8. It also gave a Ratio treated/solvent ([4]; TA98, without metabolic activation, 0.5 μg per plate) of 0.7, a Ratio treated/solvent ([4]; TA98, without metabolic activation, 1 μg per plate) of 1.0 and a Ratio treated/solvent ([4]; TA98, without metabolic activation, 5 μg per plate) of 1.8. The Ratio treated/solvent ([4]; TA98, without metabolic activation, 10 μg per plate) was 1.8, the Ratio treated/solvent ([4]; TA98, without metabolic activation, 50 μg per plate) was 5.5 and the Ratio treated/solvent ([4]; TA98, without metabolic activation, 100 μg per plate) was 8.5.

Compound `[O-][n+]1nc(NC2CC2)[n+]([O-])c2ccccc21` [SRI-012255] has a CC50 at 72 h (in vitro) of 20.7 µg/mL (≈ 94.9 µM), an LORA MIC (NRP Mtb H37Rv cells) of 1.76 µg/mL and a TB MIC - UIC (Mtb H37Rv [2]) of 1.82 µg/mL.

`[O-][n+]1nc(NC2CCCCCC2)[n+]([O-])c2ccccc21` [SRI-012256] gave a CC50 at 72 h (in vitro) of 7.9 µg/mL (≈ 28.8 µM), an LORA MIC (NRP Mtb H37Rv cells) of 0.5 µg/mL and a TB MIC - UIC (Mtb H37Rv [2]) of 1.64 µg/mL.

For `CCCC(C)Nc1n[n+]([O-])c2ccccc2[n+]1[O-]` (stereo not drawn) [SRI-012258], the CC50 at 72 h (in vitro) was 26.3 µg/mL (≈ 106 µM), the LORA MIC (NRP Mtb H37Rv cells) was 0.99 µg/mL and the TB MIC - UIC (Mtb H37Rv [2]) was 1.95 µg/mL.

With `[O-][n+]1nc(NC2CCCC2)[n+]([O-])c2ccccc21` [SRI-012265] the CC50 at 72 h (in vitro) was 10.4 µg/mL (≈ 42.2 µM), the LORA MIC (NRP Mtb H37Rv cells) was 0.68 µg/mL and the TB MIC - UIC (Mtb H37Rv [2]) was 3.58 µg/mL.

For `[O-][n+]1nc(NC2CCCCC2)[n+]([O-])c2ccccc21` [SRI-012266], the CC50 at 72 h (in vitro) was 8.9 µg/mL (≈ 34.2 µM), the LORA MIC (NRP Mtb H37Rv cells) was 0.75 µg/mL and the TB MIC - UIC (Mtb H37Rv [2]) was 3.77 µg/mL.
